Measured values taken from US9956220B2, “Imidazo-pyridazine derivatives as casein kinase 1 δ/ϵ inhibitors” (Bristol-Myers Squibb Company, priority 2014, dated 2018).

Assays:
CK1ϵ = CK1ϵ (Homo sapiens, UniProt P49674); test: CK1ϵ kinase assay (Caliper LABCHIP electrophoretic separation of fluoresceinated peptide substrate and product); format: biochemical; details: 200 pM CK1ϵ, 50 μM ATP, 1.5 μM peptide substrate, 22 hours at room temperature; read-out: CK1ε (IC50)
Protocol: (§1) CK1ϵ and CK1δ Kinase Assays
(§2) The kinase assay was performed in V-bottom 384-well plates.
(§3) The reaction was incubated at room temperature for 22 hours and terminated by adding 45 μl of 35 mM EDTA to each sample. The reaction mixture was analyzed on the Caliper LABCHIP®3000 (Caliper, Hopkinton, Mass.) by electrophoretic separation of the unphosphorylated substrate and phosphorylated product. […] Compounds were dissolved at 10 mM in dimethylsulfoxide (DMSO) and evaluated at eleven concentrations. IC50 values were derived by non-linear regression analysis.

CK1δ = CK1δ (Homo sapiens, UniProt P48730); test: CK1δ kinase assay (Caliper LABCHIP electrophoretic separation of fluoresceinated peptide substrate and product); format: biochemical; details: 200 pM CK1δ, 50 μM ATP, 1.5 μM peptide substrate, 22 hours at room temperature
CK1δ, sequence (P48730 whole entry): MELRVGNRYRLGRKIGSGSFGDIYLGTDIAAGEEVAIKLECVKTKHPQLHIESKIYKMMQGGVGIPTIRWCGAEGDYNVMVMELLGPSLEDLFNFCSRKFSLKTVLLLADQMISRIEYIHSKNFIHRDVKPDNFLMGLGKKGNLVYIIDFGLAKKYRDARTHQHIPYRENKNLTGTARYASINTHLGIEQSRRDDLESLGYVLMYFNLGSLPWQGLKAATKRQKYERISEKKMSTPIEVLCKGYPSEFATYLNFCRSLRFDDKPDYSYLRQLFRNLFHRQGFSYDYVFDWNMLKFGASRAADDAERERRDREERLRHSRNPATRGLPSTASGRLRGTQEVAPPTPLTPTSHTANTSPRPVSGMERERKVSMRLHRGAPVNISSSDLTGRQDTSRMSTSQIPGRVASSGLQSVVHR
Protocol: as §1, §2, §3

CK1ϵ, sequence (P49674 whole entry): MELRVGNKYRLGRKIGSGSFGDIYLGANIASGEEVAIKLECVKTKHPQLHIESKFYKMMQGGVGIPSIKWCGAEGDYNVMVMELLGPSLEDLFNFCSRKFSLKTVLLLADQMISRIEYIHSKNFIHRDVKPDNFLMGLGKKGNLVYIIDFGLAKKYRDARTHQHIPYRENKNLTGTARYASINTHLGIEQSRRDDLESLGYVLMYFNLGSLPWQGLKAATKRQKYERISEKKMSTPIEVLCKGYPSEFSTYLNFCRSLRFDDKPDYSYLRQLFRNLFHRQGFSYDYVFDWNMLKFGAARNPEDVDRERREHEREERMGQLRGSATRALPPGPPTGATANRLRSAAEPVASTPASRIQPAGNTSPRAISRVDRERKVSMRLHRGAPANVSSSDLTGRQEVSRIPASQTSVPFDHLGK

O=C(Nc1cn2nc(-c3c(-c4ccc(F)cc4)nn4c3CN(C(=O)NC3CC3)CC4)ccc2n1)c1ccnc(F)c1 [Example 46, N-Cyclopropyl-3-(2-(2-fluoroisonicotinamido)imidazo[1,2-b]pyridazin-6-yl)-2-(4-fluorophenyl)-6,7-dihydropyrazolo[1,5-a]pyrazine-5(4H)-carboxamide]
IC50 (CK1ϵ): 2.5 nM
IC50 (CK1δ): 0.4 nM

O=C(Nc1cn2nc(-c3c(-c4ccc(F)cc4)nn4c3CNCC4)ccc2n1)c1cc(F)nc(F)c1 [Example 5, 2,6-Difluoro-N-(6-(2-(4-fluorophenyl)-4,5,6,7-tetrahydropyrazolo[1,5-a]pyrazin-3-yl)imidazo[1,2-b]pyridazin-2-yl)isonicotinamide]
IC50 (CK1ϵ): 4.7 nM
IC50 (CK1δ): 0.4 nM

O=C(Nc1cn2nc(-c3c(-c4ccc(F)cc4)nn4c3CN(C(=O)NC35CC6CC(CC(C6)C3)C5)CC4)ccc2n1)c1ccnc(F)c1 [Example 45, N-(Adamantan-1-yl)-3-(2-(2-fluoroisonicotinamido)imidazo [1,2-b]pyridazin-6-yl)-2-(4-fluorophenyl)-6,7-dihydropyrazolo[1,5-a]pyrazine-5(4H)-carboxamide]
IC50 (CK1ϵ): 154 nM
IC50 (CK1δ): 19.2 nM

O=C(Nc1cn2nc(-c3c(-c4ccc(F)cc4)nn4c3CN(S(=O)(=O)c3ccc(F)cc3)CC4)ccc2n1)c1ccnc(F)c1 [Example 37, 2-Fluoro-N-(6-(2-(4-fluorophenyl)-5-((4-fluorophenyl)sulfonyl)-4,5,6,7-tetrahydropyrazolo [1,5-a]pyrazin-3-yl)imidazo [1,2-b]pyridazin-2-yl) isonicotinamide]
IC50 (CK1ϵ): 14 nM
IC50 (CK1δ): 1.1 nM

O=C(Nc1cn2nc(-c3c(-c4ccc(F)cc4)nn4c3CCC4)ccc2n1)c1ccccc1 [Example 68, N-(6-(2-(4-Fluorophenyl)-5,6-dihydro-4H-pyrrolo[1,2-b]pyrazol-3-yl)imidazo[1,2-b]pyridazin-2-yl)benzamide]
IC50 (CK1ϵ): 3.6 nM
IC50 (CK1δ): 0.3 nM

O=C(Nc1cn2nc(-c3c(-c4ccc(F)cc4)nn4c3CN(C(=O)c3ccnc(F)c3)CC4)ccc2n1)c1ccnc(F)c1 [Example 20, 2-Fluoro-N-(6-(5-(2-fluoroisonicotinoyl)-2-(4-fluorophenyl)-4,5,6,7-tetrahydropyrazolo[1,5-a]pyrazin-3-yl)imidazo[1,2-b]pyridazin-2-yl) isonicotinamide]
IC50 (CK1ϵ): 7 nM
IC50 (CK1δ): 0.5 nM

CC(C)NC(=O)N1CCn2nc(-c3ccc(F)cc3)c(-c3ccc4nc(NC(=O)c5ccnc(F)c5)cn4n3)c2C1 [Example 42, 3-(2-(2-Fluoroisonicotinamido)imidazo[1,2-b]pyridazin-6-yl)-2-(4-fluorophenyl)-N-isopropyl-6,7-dihydropyrazolo[1,5-a] pyrazine-5(4H)-carboxamide]
IC50 (CK1ϵ): 9.5 nM
IC50 (CK1δ): 0.8 nM

Cc1nc(-c2ccncc2)sc1C(=O)Nc1cn2nc(-c3c(-c4ccc(F)cc4)nn4c3CNCC4)ccc2n1 [Example 2, N-(6-(2-(4-Fluorophenyl)-4,5,6,7-tetrahydropyrazolo[1,5-a]pyrazin-3-yl)imidazo[1,2-b]pyridazin-2-yl)-4-methyl-2-(pyridin-4-yl)thiazole-5-carboxamide]
IC50 (CK1ϵ): 2.4 nM
IC50 (CK1δ): 0.2 nM

CC(C)OC(=O)N1CCn2nc(-c3ccc(F)cc3)c(-c3ccc4nc(NC(=O)c5ccnc(F)c5)cn4n3)c2C1 [Example 34, Isopropyl 3-(2-(2-fluoroisonicotinamido)imidazo[1,2-b]pyridazin-6-yl)-2-(4-fluorophenyl)-6,7-dihydropyrazolo[1,5-a] pyrazine-5(4H)-carboxylate]
IC50 (CK1ϵ): 6.5 nM
IC50 (CK1δ): 1 nM

O=C(Nc1cn2nc(-c3c(-c4ccc(F)cc4)nn4c3CCCC4)ccc2n1)c1ccnc(F)c1 [Example 62, 2-Fluoro-N-(6-(2-(4-fluorophenyl)-4,5,6,7-tetrahydropyrazolo[1,5-a]pyridin-3-yl)imidazo[1,2-b]pyridazin-2-yl)isonicotinamide]
IC50 (CK1ϵ): 1.3 nM
IC50 (CK1δ): 0.4 nM

O=C(Nc1cn2nc(-c3c(-c4ccc(F)cc4)nn4c3COCC4)ccc2n1)c1ccnc(-c2cccnc2)c1 [Example 57, N-(6-(2-(4-Fluorophenyl)-6,7-dihydro-4H-pyrazolo[5,1-c][1,4]oxazin-3-yl)imidazo[1,2-b]pyridazin-2-yl)-[2,3′-bipyridine]-4-carboxamide]
IC50 (CK1ϵ): 1.7 nM
IC50 (CK1δ): 0.2 nM

O=C(Nc1cn2nc(-c3c(-c4ccc(F)cc4)nn4c3CN(C(=O)NCC(F)(F)F)CC4)ccc2n1)c1ccnc(F)c1 [Example 48, 3-(2-(2-Fluoroisonicotinamido)imidazo[1,2-b]pyridazin-6-yl)-2-(4-fluorophenyl)-N-(2,2,2-trifluoroethyl)-6,7-dihydropyrazolo[1,5-a]pyrazine-5(4H)-carboxamide]
IC50 (CK1ϵ): 5.6 nM
IC50 (CK1δ): 0.4 nM

O=C(Nc1cn2nc(-c3c(-c4ccc(F)cc4)nn4c3CN(C(=O)c3ccc(F)c(F)c3)CC4)ccc2n1)c1ccnc(F)c1 [Example 18, N-(6-(5-(3,4-Difluorobenzoyl)-2-(4-fluorophenyl)-4,5,6,7-tetrahydropyrazolo[1,5-a]pyrazin-3-yl)imidazo[1,2-b]pyridazin-2-yl)-2-fluoroisonicotinamide]
IC50 (CK1ϵ): 5.6 nM
IC50 (CK1δ): 0.5 nM

O=C(Nc1cn2nc(-c3c(-c4ccc(F)cc4)nn4c3CNCC4)ccc2n1)c1ccncc1 [Example 3, N-(6-(2-(4-Fluorophenyl)-4,5,6,7-tetrahydropyrazolo[1,5-a]pyrazin-3-yl)imidazo[1,2-b]pyridazin-2-yl)isonicotinamide]
IC50 (CK1ϵ): 5.1 nM
IC50 (CK1δ): 0.5 nM
